# pEC50: −log10 of the molar value. Where two headings read alike, the source gives them in different places.
# What was measured:
# Assay in all cases: microbe, parasite or virus in culture
# Assay type in all cases: cell-based
# [1] = tested on: HCV 1a RLuc cells (dicistronic genotype 1a H77 replicon, RLuc reporter); settings: genotype 1a H77 replicon, RLuc reporter, read-out: 1a
# Experimental: (§1) Evaluation of cell-based anti-HCV activity: Antiviral potency (EC50) was determined using a Renilla luciferase (RLuc)-based HCV replicon reporter assay. To perform the assay for genotype 1 and 2a JFH-1, HCV 1b RLuc cells (harboring a dicistronic genotype 1b Con1 replicon that encodes a RLuc reporter), or HCV 1a RLuc cells (harboring a dicistronic genotype 1a H77 replicon that encodes a RLuc reporter), or HCV 2a JFH-1 Rluc cells (harboring a dicistronic genotype 2a JFH-1 replicon that encodes a RLuc reporter) were dispensed into 384-well plates. To perform the assay for genotype 2a (with M31 present) or 2b, HCV 2a Rluc or 2b Rluc cells (both with M31 present) harboring a dicistronic NS5A chimeric genotype 2a JFH-1 replicon that encodes a RLuc reporter and either genotype 2a J6 strain NS5A gene or genotype 2b MD2b-1 NS5A gene (based on Los Alamos HCV database isolates, both with M31 present) respectively, were dispensed into 384-well plates. To perform the assay for genotype 3 and 4, HCV 3a RLuc or 4a Rluc cells harboring a dicistronic NS5A chimeric genotype 1b Con1 replicon that encodes a RLuc reporter and either a consensus genotype 3a NS5A gene or genotype 4a NS5A gene (based on Los Alamos HCV database isolates) respectively, were dispensed into 384-well plates. Compounds were re-suspended in DMSO at a concentration of 10 mM and serially diluted in DMSO either manually or using an automated pipeting instrument. Serially diluted compounds were mixed with cell culture media and added to the seeded cells. […] 72 hours later, cells were lysed and Renilla luciferase activity quantified as recommended by the manufacturer (Promega-Madison, Wis.). Non-linear regression was performed to calculate EC50 values.
# [2] = tested on: HCV 1b RLuc cells (dicistronic genotype 1b Con1 replicon, RLuc reporter); settings: for EC50: Hepatitis C virus, read-out: 1b (nM); for pEC50: read-out: 1b
# Experimental: as §1
# [3] = tested on: HCV 2a JFH-1 Rluc cells (dicistronic genotype 2a JFH-1 replicon, RLuc reporter); settings: genotype 2a JFH-1 replicon, RLuc reporter, read-out: 2a JFH
# Experimental: as §1
# [4] = tested on: HCV 3a RLuc cells (NS5A chimeric genotype 1b Con1 replicon with consensus genotype 3a NS5A gene)
# Experimental: as §1
# [5] = Hepatitis C virus, read-out: 3a, genotype 3a NS5A chimeric 1b Con1 replicon
# [6] = read-out: 3a, genotype 3a NS5A chimeric 1b Con1 replicon
SMILES,pEC50 ([1]; Hepatitis C virus),EC50 [2],pEC50 ([3]; Hepatitis C virus),"pEC50 [4, 5]",pEC50 [2],"pEC50 [4, 6]",pEC50 [1],pEC50 [3]
COC(=O)N[C@H](C(=O)N1CCC[C@H]1c1ncc(-c2ccc3cc(-c4ccc5c(c4)CCc4nc([C@@H]6CCCN6C(=O)[C@H](NC(=O)OC)c6ccccc6)[nH]c4-5)ccc3c2)[nH]1)C(C)C [Example 142],9.00 to 12.00,0.013 nM,9.00 to 12.00,9.00 to 12.00,,,,
COC(=O)NC(C(=O)N1CCC[C@@]1(F)c1ncc(-c2ccc(-c3ccc4cc(-c5cnc([C@@H]6CCCN6C(=O)[C@@H](NC(=O)OC)C(C)C)[nH]5)ccc4c3)cc2)[nH]1)c1ccc2c(c1)OCO2 (some centres unmarked) [Example 143],9.00 to 12.00,0.025 nM,7.36 to 9.00,< 8.30,,,,
COC(=O)N[C@H](C(=O)N1C[C@H](C#N)C[C@H]1c1ncc(-c2ccc3cc(-c4ccc(-c5cnc([C@@H]6CCCN6C(=O)[C@@H](c6ccccc6)N(C)C)[nH]5)cc4)ccc3c2)[nH]1)C(C)C [Example 144],9.00 to 12.00,0.013 nM,9.00 to 12.00,9.00 to 12.00,,,,
COC(=O)N[C@H](C(=O)N1CCC[C@H]1c1ncc(-c2ccc3cc(-c4ccc(-c5cnc([C@@H]6C[C@@H](C#N)CN6C(=O)[C@H](NC(=O)OC)c6ccccc6)[nH]5)cc4)ccc3c2)[nH]1)C(C)C [Example 145],9.00 to 12.00,0.01 nM,9.00 to 12.00,8.30 to 9.00,,,,
COC(=O)NC(C(=O)N1CCC[C@H]1c1ncc(-c2ccc(-c3ccc4cc(-c5cnc([C@@H]6CCCN6C(=O)[C@@H](NC(=O)OC)C(C)C)[nH]5)ccc4c3)cc2)[nH]1)c1cccc(C(F)(F)F)c1 (some centres unmarked) [Example 146],7.36 to 9.00,0.048 nM,7.36 to 9.00,< 8.30,,,,
COC(=O)N[C@H](C(=O)N1C[C@H](C)C[C@H]1c1ncc(-c2ccc3cc(-c4ccc(-c5cnc([C@@H]6CCCN6C(=O)[C@H](NC(=O)OC)c6ccccc6OC)[nH]5)cc4)ccc3c2)[nH]1)C(C)C [Example 147],9.00 to 12.00,0.012 nM,9.00 to 12.00,9.00 to 12.00,,,,
COC(=O)N[C@H](C(=O)N1CCC[C@H]1c1ncc(-c2ccc3cc(-c4ccc(-c5cnc([C@@H]6CCCN6C(=O)[C@H](NC(=O)OC)c6ccccc6F)[nH]5)cc4)ccc3c2)[nH]1)C(C)C [Example 148],9.00 to 12.00,,9.00 to 12.00,,10.70,8.30 to 9.00,,
COC(=O)N[C@H](C(=O)N1CCC[C@H]1c1ncc(-c2ccc3cc(-c4ccc(-c5cnc([C@@H]6CCCN6C(=O)[C@H](NC(=O)OC)c6ccccc6F)[nH]5)cc4)ccc3c2)[nH]1)C(C)C [Example 149],,,,,11.30,9.00 to 12.00,9.00 to 12.00,9.00 to 12.00
COC(=O)N[C@H](C(=O)N1CCC[C@H]1c1ncc(-c2ccc3cc(-c4ccc(-c5cnc([C@@H]6CCCN6C(=O)[C@H](NC(=O)OC)c6ccccc6C)[nH]5)cc4)ccc3c2)[nH]1)C(C)C [Example 150],9.00 to 12.00,0.006 nM,9.00 to 12.00,9.00 to 12.00,,,,
COC(=O)N[C@H](C(=O)N1CCC[C@H]1c1ncc(-c2ccc3cc(-c4ccc(-c5cnc([C@@H]6CCCN6C(=O)C(c6ccc7c(c6)OCO7)N(C)C)[nH]5)cc4)ccc3c2)[nH]1)C(C)C (some centres unmarked) [Example 151],7.36 to 9.00,0.038 nM,7.36 to 9.00,8.30 to 9.00,,,,
COC(=O)N[C@H](C(=O)N1CCC[C@H]1c1ncc(-c2ccc3cc(-c4ccc(-c5cnc([C@]6(F)CCCN6C(=O)[C@H]6c7ccccc7CCN6C)[nH]5)cc4)ccc3c2)[nH]1)C(C)C [Example 152],< 7.36,0.751 nM,< 7.36,8.30 to 9.00,,,,
COC(=O)N[C@H](C(=O)N1CCCC1c1ncc(-c2ccc3cc(-c4ccc(-c5cnc([C@@H]6CCCN6C(=O)[C@H](NC(=O)OC)c6ccccc6)[nH]5)cc4)ccc3c2)[nH]1)C1CCOCC1 (some centres unmarked) [Example 153],9.00 to 12.00,0.012 nM,9.00 to 12.00,9.00 to 12.00,,,,
COC(=O)N[C@H](C(=O)N1CCC[C@H]1c1ncc(-c2ccc(-c3ccc4cc(-c5cnc(C6CCCN6C(=O)[C@H](NC(=O)OC)c6ccccc6)[nH]5)ccc4c3)cc2)[nH]1)C1CCOCC1 (some centres unmarked) [Example 154],9.00 to 12.00,0.014 nM,9.00 to 12.00,9.00 to 12.00,,,,
CN(C)C(C(=O)N1CCC[C@H]1c1ncc(-c2ccc3cc(-c4ccc(-c5cnc([C@@H]6CCCN6C(=O)[C@H](C6CCOCC6)N(C)C)[nH]5)cc4)ccc3c2)[nH]1)c1ccccc1 (some centres unmarked) [Example 156],9.00 to 12.00,0.028 nM,9.00 to 12.00,9.00 to 12.00,,,,
CCO[C@H]1C[C@@H](c2ncc(-c3ccc(-c4ccc5cc(-c6cnc([C@@H]7CCCN7C(=O)[C@@H](NC(=O)OC)C(C)C)[nH]6)ccc5c4)cc3)[nH]2)N(C(=O)[C@@H](c2ccccc2)N(C)C)C1 [Example 158],9.00 to 12.00,0.01 nM,9.00 to 12.00,9.00 to 12.00,,,,
COC(=O)N[C@H](C(=O)N1CCC[C@H]1c1ncc(-c2ccc(-c3ccc4cc(-c5cnc([C@@H]6CCCN6C(=O)[C@@H](NC(=O)OC)C(C)C)[nH]5)ccc4c3)cc2)[nH]1)c1cccnc1 [Example 160],9.00 to 12.00,0.017 nM,9.00 to 12.00,9.00 to 12.00,,,,
COC(=O)N[C@H](C(=O)N1CCC[C@H]1c1ncc(-c2ccc3cc(-c4ccc(-c5cnc([C@@H]6CCCN6C(=O)[C@H](NC(=O)OC)c6cccnc6)[nH]5)cc4)ccc3c2)[nH]1)C(C)C [Example 161],9.00 to 12.00,0.019 nM,9.00 to 12.00,9.00 to 12.00,,,,
COC(=O)N[C@H](C(=O)N1CCC[C@H]1c1ncc(-c2ccc3cc(-c4ccc(-c5cnc([C@@H]6CCCN6C(=O)[C@](C)(NC(=O)OC)c6ccccc6)[nH]5)cc4)ccc3c2)[nH]1)C(C)C [Example 162],7.36 to 9.00,0.01 nM,7.36 to 9.00,8.30 to 9.00,,,,
COC(=O)N[C@H](C(=O)N1CCC[C@H]1c1ncc(-c2ccc3cc(-c4ccc(-c5cnc([C@@H]6CCCN6C(=O)[C@@](C)(NC(=O)OC)c6ccccc6)[nH]5)cc4)ccc3c2)[nH]1)C(C)C [Example 163],7.36 to 9.00,0.031 nM,7.36 to 9.00,< 8.30,,,,
COC(=O)N[C@@H](C)C(=O)N1CCC[C@H]1c1ncc(-c2ccc3cc(-c4ccc(-c5cnc([C@@H]6CCCN6C(=O)[C@H](NC(=O)OC)c6ccccc6)[nH]5)cc4)ccc3c2)[nH]1 [Example 164],9.00 to 12.00,0.01 nM,9.00 to 12.00,9.00 to 12.00,,,,
CCN[C@@H](C(=O)N1CCC[C@H]1c1nc(-c2ccc(-c3ccc4cc(-c5c[nH]c([C@@H]6CCCN6C(=O)[C@@H](NC(=O)OC)C(C)C)n5)ccc4c3)cc2)c[nH]1)c1ccccc1 [Example 165],9.00 to 12.00,0.009 nM,9.00 to 12.00,9.00 to 12.00,,,,
COC(=O)N[C@H](C(=O)N1CCC[C@H]1c1nc2ccc(-c3ccc(-c4ccc5c(c4)CCc4nc([C@@H]6CCCN6C(=O)[C@H](NC(=O)OC)c6ccccc6)[nH]c4-5)cc3)cc2[nH]1)C(C)C [Example 166],7.36 to 9.00,0.018 nM,9.00 to 12.00,9.00 to 12.00,,,,
COC(=O)N[C@H](C(=O)N1C[C@@H](C#N)C[C@H]1c1nc2ccc(-c3ccc(-c4ccc5c(c4)CCc4nc([C@@H]6CCCN6C(=O)[C@H](NC(=O)OC)c6ccccc6)[nH]c4-5)cc3)cc2[nH]1)C1CCOCC1 [Example 167],9.00 to 12.00,0.048 nM,9.00 to 12.00,9.00 to 12.00,,,,
CCN(C1CC1)[C@@H](C(=O)N1CCC[C@H]1c1nc(-c2ccc(-c3ccc4cc(-c5c[nH]c([C@@H]6CCCN6C(=O)[C@@H](NC(=O)OC)C(C)C)n5)ccc4c3)cc2)c[nH]1)c1ccccc1 [Example 168],7.36 to 9.00,0.01 nM,7.36 to 9.00,9.00 to 12.00,,,,
COC(=O)N[C@H](C(=O)N1CCC[C@H]1c1ncc(-c2ccc3cc(-c4ccc5c(c4)CCc4nc([C@@H]6CCCN6C(=O)[C@H](NC(=O)OC)c6ccccc6)[nH]c4-5)ccc3c2)[nH]1)C1CCOCC1 [Example 170],9.00 to 12.00,0.032 nM,9.00 to 12.00,9.00 to 12.00,,,,
CCN(CC)[C@@H](C(=O)N1CCC[C@H]1c1ncc(-c2ccc(-c3ccc4cc(-c5cnc([C@@H]6CCCN6C(=O)[C@@H](NC(=O)OC)C6CCOCC6)[nH]5)ccc4c3)cc2)[nH]1)c1ccccc1 [Example 171],9.00 to 12.00,0.026 nM,9.00 to 12.00,9.00 to 12.00,,,,
